pIC50: −log10 of the molar value. Several values for one entry are separate records, joined by “and”; a condition that tells them apart may be missing. Identical values can stand only once.
How the values were obtained:
lentivirus = assay: Inhibition in a method of the invention (lentiviral infectivity)
[1] = test system: HIV-1 Vif mediated A3G degradation; assay: Vif mediated A3G degradation in transfected 293T cells (immunoblot); format: cell-based
Method: (§1) 293T cells were transfected with the indicated plasmids in the presence of 4 μM TPEN or control vehicle. Cell lysates were analyzed for A3G degradation by SDS-PAGE followed by immunoblotting for A3G-HA, Vif-myc, and ribosomal p19 as a loading control. […] 293T cells were transfected with the indicated plasmids and treated with […] TPEN or control vehicle. Vif-HA was immunoprecipitated from prepared lysates. Lysates were analyzed by SDS-PAGE followed by immunoblotting for Vif-HA and A3G-myc. […] Cells were infected with WT or ΔVif NL4-3 virus in the presence of A3G-myc and treated with 4 μM TPEN or DMSO. Cells were harvested and virus was isolated from the supernatant by ultracentrifugation and analyzed by SDS PAGE and immunoblotting against Vif, myc, and p24. […] Adenovirus E4orf6 mediated p53 degradation is not affected by 4 μM TPEN. […] Cells were harvested and analyzed for p53 degradation by SDS-PAGE followed by immunoblotting for p53, E4orf6-myc, and ribosomal p19 as a loading control. […]
(§2) Transfected 293T cells were harvested, washed twice with cold PBS, and lysed in lysis buffer (50 mM Tris, pH 7.5, with 150 mM NaCl, 1% Triton X-100, and complete protease inhibitor cocktail tablets) at 4° C. for 1 h, then centrifuged at 10,000×g for 30 min. […] The eluted materials were then analyzed by SDS-PAGE and immunoblotting as previously described (Yu et al. (2003) (supra)). […]

Cul5-SOCS-3 E3 ligase = target: T1, Cul5-SOCS-3 E3 ligase (Homo sapiens, UniProt O14543); assay: SOCS-3-HA immunoprecipitation and immunoblot in 293T cells; format: cell-based; settings: 4 μM TPEN vs control DMSO
T1 construct: expressed in transfected cells; host or cells: 293T
T1 sequence (O14543 1-225): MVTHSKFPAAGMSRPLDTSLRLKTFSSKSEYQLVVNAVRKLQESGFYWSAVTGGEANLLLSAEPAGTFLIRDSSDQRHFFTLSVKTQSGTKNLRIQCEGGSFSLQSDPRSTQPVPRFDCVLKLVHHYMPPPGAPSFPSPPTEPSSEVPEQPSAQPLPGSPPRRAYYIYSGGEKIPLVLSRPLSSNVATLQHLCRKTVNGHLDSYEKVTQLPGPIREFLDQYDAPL
Method: (§3) Hydrophobic residues are represented by a Phi (Φ). […] 293T cells were transfected with the indicated SIV Vif expression vectors and treated with 4 μM TPEN. Cell lysates were immunoprecipitated and analyzed by SDS-PAGE followed immunoblotting for Cul5, HA, ElonginB, and ElonginC. […] 293T cells were transfected with SOCS-3-HA and treated with 4 μM TPEN. Cell lysates were immunoprecipitated and analyzed by SDS-PAGE and immunoblotting.
(§4) Medium was removed 12 h prior to harvesting cells and replaced with either fresh medium alone or medium containing the indicated concentration of TPEN (Sigma). After a 12-h incubation, the cells were harvested for immunoprecipitation and immunoblot analysis, or the medium was collected for MAGI assay.
as §2, with “min. For myc-tag immunoprecipitation, precleared cell lysates were mixed with anti-myc antibody (Upstate) and incubated with protein G at 4° C. for 3 h.” for “min.”

[2] = test system: virion incorporation of A3G; assay: A3G levels in cells and virions, WT or ΔVif NL4-3 virus with A3G-myc; format: cell-based, HIV-1; settings: 4 μM TPEN vs DMSO
Method: 293T cells were transfected with the indicated plasmids in the presence of 4 μM TPEN or control vehicle. Cell lysates were analyzed for A3G degradation by SDS-PAGE followed by immunoblotting for A3G-HA, Vif-myc, and ribosomal p19 as a loading control. […] 293T cells were transfected with the indicated plasmids and treated with […] TPEN or control vehicle. Vif-HA was immunoprecipitated from prepared lysates. Lysates were analyzed by SDS-PAGE followed by immunoblotting for Vif-HA and A3G-myc. […] Cells were infected with WT or ΔVif NL4-3 virus in the presence of A3G-myc and treated with 4 μM TPEN or DMSO. Cells were harvested and virus was isolated from the supernatant by ultracentrifugation and analyzed by SDS PAGE and immunoblotting against Vif, myc, and p24. […] Adenovirus E4orf6 mediated p53 degradation is not affected by 4 μM TPEN. 293T cells were transfected with p53 and E4orf6-myc expression vectors in the presence of 4 μM TPEN or control vehicle. Cells were harvested and analyzed for p53 degradation by SDS-PAGE followed by immunoblotting for p53, E4orf6-myc, and ribosomal p19 as a loading control.
Medium was removed 12 h prior to harvesting cells and replaced with either fresh medium alone or medium containing the indicated concentration of TPEN (Sigma). […]

[3] = test system: SIVsyk Vif-Cul5 interaction; assay: SIVsyk Vif immunoprecipitation and immunoblot in 293T cells; format: cell-based; settings: 4 μM TPEN vs vehicle DMSO
Method: as §3, §4
as §2, with “min. For myc-tag immunoprecipitation, precleared cell lysates were mixed with anti-myc antibody (Upstate) and incubated with protein G at 4° C. for 3 h.” for “min.”

[4] = test system: Rbx function (E4orf6 mediated p53 degradation); assay: Adenovirus E4orf6 mediated p53 degradation in 293T cells (Rbx function); format: cell-based; settings: 4 μM TPEN
Method: as §1, §2

[5] = target: T2, HIV-1 Vif-Cul5 interaction (Human immunodeficiency virus type 1 group M subtype B, UniProt P69723); assay: Vif-HA immunoprecipitation and immunoblot for Cul5, ElonginB, ElonginC in Vif-expressing 293T cells; format: cell-based
T2 construct: expressed in transfected cells; host or cells: 293T
T2 sequence (Q15370 whole entry): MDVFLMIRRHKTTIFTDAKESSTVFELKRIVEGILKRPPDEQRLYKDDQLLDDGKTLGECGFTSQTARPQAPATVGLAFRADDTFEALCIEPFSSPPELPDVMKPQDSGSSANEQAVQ
T2 sequence (Q15369 whole entry, further chain): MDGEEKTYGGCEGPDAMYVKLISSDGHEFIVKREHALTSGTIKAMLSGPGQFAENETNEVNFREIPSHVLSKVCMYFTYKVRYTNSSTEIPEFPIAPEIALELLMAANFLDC
T2 sequence (Q13951 whole entry, further chain): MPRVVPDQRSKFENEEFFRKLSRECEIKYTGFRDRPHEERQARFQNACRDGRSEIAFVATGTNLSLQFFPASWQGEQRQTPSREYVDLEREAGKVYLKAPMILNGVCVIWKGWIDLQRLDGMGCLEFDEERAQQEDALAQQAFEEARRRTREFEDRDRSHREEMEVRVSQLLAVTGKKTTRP
T2 sequence (P69723 whole entry): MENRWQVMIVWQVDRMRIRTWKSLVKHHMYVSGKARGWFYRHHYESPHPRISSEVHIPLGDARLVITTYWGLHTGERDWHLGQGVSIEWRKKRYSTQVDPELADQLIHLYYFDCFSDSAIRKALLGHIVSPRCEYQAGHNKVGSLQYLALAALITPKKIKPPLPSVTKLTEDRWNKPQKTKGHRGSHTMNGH
Method: The Cul5-Vif E3 ubiquitin ligase binds A3G and brings it in close proximity with the E2 ubiquitin conjugating enzyme. Polyubiquitinated A3G is recognized by the proteasome and subsequently degraded. […] 293T cells were transfected with Vif-HA expression vectors as previously described and treated with the indicated amounts of TPEN. Vif-HA was immunoprecipitated and eluted materials were then analyzed by SDS-PAGE and immunoblotting for Cul5, Vif-HA, ElonginB, and ElonginC. […] 293T cells were transfected with Vif-HA and treated with the indicated amounts of TPEN. Cell lysates were harvested and analyzed by SDS-PAGE and immunoblotting for Cul5 and Vif-HA.
as §4
Transfected 293T cells were harvested, washed twice with cold PBS, and lysed in lysis buffer (50 mM Tris, pH 7.5, with 150 mM NaCl, 1% Triton X-100, and complete protease inhibitor cocktail tablets) at 4° C. for 1 h, then centrifuged at 10,000×g for 30 min. For myc-tag immunoprecipitation, precleared cell lysates were mixed with anti-myc antibody (Upstate) and incubated with protein G at 4° C. for 3 h. For HA tag immunoprecipitation, precleared cell lysates were mixed with anti-HA antibody-conjugated agarose beads (Roche) and incubated at 4° C. for 3 h. Samples were then washed three times with washing buffer (20 mM Tris, pH 7.5, with 100 mM NaCl, 0.1 mM EDTA, and 0.05% Tween-20). The beads were eluted with elution buffer (0.1 M glycine-HCl, pH 2.0) or 2× loading buffer. The eluted materials were then analyzed by SDS-PAGE and immunoblotting as previously described (Yu et al. (2003) (supra)).

Vif-A3G interaction = target: T3, Vif-A3G interaction (Human immunodeficiency virus type 1 group M subtype B, UniProt P69723); assay: Vif-A3G co-immunoprecipitation in 293T cells; format: cell-based, HIV-1; settings: 4 μM TPEN vs control vehicle
T3 construct: expressed in transfected cells; host or cells: 293T
T3 sequence (Q9HC16 whole entry): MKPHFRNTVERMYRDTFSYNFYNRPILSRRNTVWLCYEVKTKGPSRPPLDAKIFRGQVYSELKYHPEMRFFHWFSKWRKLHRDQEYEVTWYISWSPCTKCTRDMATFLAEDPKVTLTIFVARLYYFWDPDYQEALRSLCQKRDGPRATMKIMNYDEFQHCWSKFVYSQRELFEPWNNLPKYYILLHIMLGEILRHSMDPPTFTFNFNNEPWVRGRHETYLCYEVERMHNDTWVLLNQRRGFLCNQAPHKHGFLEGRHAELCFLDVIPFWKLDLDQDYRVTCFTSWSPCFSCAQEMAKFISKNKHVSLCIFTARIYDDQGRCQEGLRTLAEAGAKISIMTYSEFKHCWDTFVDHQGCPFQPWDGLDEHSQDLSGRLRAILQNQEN
T3 sequence (P69723 whole entry): as the sequence (P69723 whole entry) above
T3 sequence (Q13951 whole entry, further chain): as the sequence (Q13951 whole entry, further chain) above
T3 sequence (Q15369 whole entry, further chain): as the sequence (Q15369 whole entry, further chain) above
T3 sequence (Q15370 whole entry, further chain): as the sequence (Q15370 whole entry) above
Method: as §1, §2

[6] = test system: SIVagm Vif-Cul5 interaction; assay: SIVagm Vif immunoprecipitation and immunoblot in 293T cells; format: cell-based; settings: 4 μM TPEN vs vehicle DMSO
Method: as §3, §4
as §2, with “min. For myc-tag immunoprecipitation, precleared cell lysates were mixed with anti-myc antibody (Upstate) and incubated with protein G at 4° C. for 3 h.” for “min.”

[7] = test system: NL4-3 virus infectivity in MAGI cells; assay: MAGI assay of virus infectivity, virus produced in 293T or 293T-A3G cells; format: cell-based, HIV-1
Method: MAGI cells were infected with wild-type or Vif deficient NL4-3 produced in the absence or presence of A3G and […] TPEN as indicated. Relative infectivity was calculated by setting wild type virus infectivity to 100% (lane 1).
293T and MAGI-CCR5 cells (Chackerian et al. (1997) J Virol 71, 3932-3939) were maintained and transfected or infected as previously described (Yu et al. (2003) (supra)). The MAGI assay was performed as described previously and the antibodies used in this study have been described: anti-HA antibody-agarose conjugate, anti-myc antibody-agarose conjugate, anti-Vif, anti-Elongin B, anti-Elongin C, anti-Myc, anti-HA, and anti-human ribosomal P antigens (Yu et al. (2003) (supra)). The anti-p53 mouse mAb was obtained from Oncogene Research Products (Cat. #OP03).
as §4
In order to assess the biological relevance of the zinc requirement in Vif-Cul5 interaction and assess whether A3G retained antiviral function in the presence of 7 μM TPEN, we studied the effect of TPEN on virus infectivity. MAGI cells were infected with wild type or Vif deficient virus produced in 293T or 293T-A3G cells in the presence of 7 μM TPEN or control DMSO. We set the infectivity of WT virus in the absence of A3G to 100%, and calculated the relative infectivity under all treated conditions (FIG. 4). As expected, in the presence of A3G and the absence of Vif, there was a drastic decrease of infectivity to 8% (FIG. 4, lane 4). However in the presence of Vif, A3G was neutralized resulting in 91% infectivity (FIG. 4, lane 3). One would expect zinc chelation to have an effect on virus infectivity independent of Vif function. We observed a modest decrease in infectivity, of about 15% even in the absence of A3G (FIG. 4, lanes, 5 and 6). […]

| Compound | effectiveness as inhibitor in a method of the invention (lentivirus) | A3G expression or stability in the absence of HIV-1 Vif ([1]; 4 μM TPEN) | A3G degradation induced by HIV-1 Vif ([1]; 4 μM TPEN vs control vehicle) | interaction of SOCS-3 with Cul5 (Cul5-SOCS-3 E3 ligase) | A3G incorporation into virions in the presence of Vif [2] | cellular A3G protein levels in the presence of Vif [2] | Cul5 co-immunoprecipitation with SIVsyk Vif [3] | ElonginB and ElonginC detected with SIVsyk Vif [3] | p53 levels in the presence of E4orf6 [4] | effect on cellular Cul5 protein levels ([5]; 293T cells transfected with Vif-HA, cell lysates) | pIC50 ([5]; IC50, decrease of Cul5-Vif interaction, Vif-expressing 293T cells, increasing concentrations of TPEN, 12-h incubation) | interaction of Vif with ElonginB and ElonginC ([5]; Vif-expressing 293T cells, increasing concentrations of TPEN) | effect on Vif-A3G interaction (Vif-A3G interaction) | Cul5 co-immunoprecipitation with SIVagm Vif [6] | ElonginB and ElonginC detected with SIVagm Vif [6] | decrease in infectivity in the absence of A3G ([7]; 7 μM TPEN on producer cells, relative to WT virus without A3G = 100%) | infectivity loss in the presence of A3G and Vif ([7]; 7 μM TPEN on producer cells, relative to WT virus without A3G = 100%, 91% infectivity without TPEN) | effect on A3G function ([7]; 7 μM TPEN, FIG. 4 lanes 7 and 8) |
| --- | --- | --- | --- | --- | --- | --- | --- | --- | --- | --- | --- | --- | --- | --- | --- | --- | --- | --- |
| Oc1ccc(O)c(Cl)c1 [Chloroquinol] | not an effective inhibitor |  |  |  |  |  |  |  |  |  |  |  |  |  |  |  |  |  |
| c1ccc(CN(CCN(Cc2ccccn2)Cc2ccccn2)Cc2ccccn2)nc1 [TPEN, N,N,N′,N′-Tetrakis-(2-pyridylmethyl)ethylenediamine] |  | no effect | abolished | equal interaction | enhancing incorporation | increased | marked decrease | equal amounts | declined | did not have any effect | ~5.75 and 5.75 | remained constant | no effect | marked decrease | equal amounts | about 15% | about 87% | no effect |

Reference: patent publication US8338089B2, “Method of inhibiting lentiviral infectivity utilizing zinc chelation to inhibit Vif activity” (The Johns Hopkins University, priority 2006, dated 2012)
